Measurements published in patent US10131652B2, “Pyrimidinyloxy benzene derivatives as herbicides” (E. I. DU PONT DE NEMOURS AND COMPANY, priority 2014, dated 2018).
Like-named read-outs stand apart in the source and are kept apart here.

Columns and labels:
Test in all cases: Test F pre-/postemergence plant response
Format in all cases: in vivo
[1] = system: wild poinsettia (Euphorbia heterophylla); conditions: Euphorbia heterophylla, scale 0 to 100, read-out: Plant response rating, Poinsettia, Wild
Summary of the method: (§1)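 Visual rating versus untreated controls, 0–100 scale (0 = no effect, 100 = complete control), taken 14–21 d after treatment in greenhouse. Pre: seeds planted in silt loam, soil treated. Post: plants 2–18 cm, 1–4 leaves. Compound formulated in non-phytotoxic solvent plus surfactant.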

[2] = system: palmer pigweed (Amaranthus palmeri); conditions: Amaranthus palmeri, scale 0 to 100, read-out: Plant response rating, Pigweed, Palmer
Summary of the method: as §1

[3] = system: lambsquarters (Chenopodium album); conditions: Chenopodium album, pre-emergence, scale 0 to 100, read-out: Plant response rating, Lambsquarters
Summary of the method: as §1

[4] = system: Brazilian crabgrass (Digitaria horizontalis); conditions: Digitaria horizontalis, scale 0 to 100, read-out: Plant response rating, Crabgrass, Brazil
Summary of the method: as §1

[5] = system: fall panicum (Panicum dichotomiflorum); conditions: Panicum dichotomiflorum, scale 0 to 100, read-out: Plant response rating, Panicum, Fall
Summary of the method: as §1

[6] = system: goosegrass (Eleusine indica); conditions: Eleusine indica, pre-emergence, scale 0 to 100, read-out: Plant response rating, Goosegrass
Summary of the method: as §1

corn (Zea mays) = conditions: Zea mays, scale 0 to 100
Summary of the method: as §1

[7] = system: arrowleaf sida (Sida rhombifolia); conditions: Sida rhombifolia, post-emergence, scale 0 to 100, read-out: Plant response rating, Arrowleaf Sida
Summary of the method: as §1

[8] = post-emergence, 8 g ai/ha Postemergence
[9] = post-emergence, 16 g ai/ha Postemergence
[10] = post-emergence, 31 g ai/ha Postemergence
[11] = post-emergence, 62 g ai/ha Postemergence
[12] = post-emergence, 125 g ai/ha Postemergence
[13] = pre-emergence, 8 g ai/ha Preemergence
[14] = pre-emergence, 16 g ai/ha Preemergence
[15] = pre-emergence, 31 g ai/ha Preemergence
[16] = pre-emergence, 125 g ai/ha Preemergence
[17] = pre-emergence, 62 g ai/ha Preemergence

For `FC(F)c1cc(-c2ccccc2Oc2ncc(Cl)cn2)on1` [Compound 53, 5-chloro-2-[2-[3-(difluoromethyl)-5-isoxazolyl]phenoxy]pyrimidine], the pest or weed control at 8 g/ha [1, 8] was 50%, the pest or weed control at 16 g/ha [1, 9] was 50% and the pest or weed control at 31 g/ha [1, 10] was 60%. It also gave a pest or weed control at 62 g/ha [1, 11] of 70%, a pest or weed control at 125 g/ha [1, 12] of 70% and a pest or weed control at 8 g/ha [1, 13] of 0%. The pest or weed control at 16 g/ha [1, 14] was 0%, the pest or weed control at 31 g/ha [1, 15] was 0% and the pest or weed control at 125 g/ha [1, 16] was 0%. It also gave a pest or weed control at 62 g/ha ([1]; pre-emergence, Preemergence) of 0%, a pest or weed control at 8 g/ha [2, 8] of 70% and a pest or weed control at 16 g/ha [2, 9] of 65%. The pest or weed control at 31 g/ha [2, 10] was 90%, the pest or weed control at 62 g/ha [2, 11] was 100% and the pest or weed control at 125 g/ha [2, 12] was 100%. For the same molecule, the pest or weed control at 8 g/ha [2, 13] was 0%, the pest or weed control at 16 g/ha [2, 14] was 0% and the pest or weed control at 31 g/ha [2, 15] was 90%. It also gave a pest or weed control at 125 g/ha [2, 16] of 100%, a pest or weed control at 62 g/ha ([2]; pre-emergence, Preemergence) of 100% and a pest or weed control at 8 g/ha ([3]; 8 g ai/ha Preemergence) of 65%. The pest or weed control at 16 g/ha ([3]; 16 g ai/ha, Preemergence) was 65%, the pest or weed control at 31 g/ha ([3]; 31 g ai/ha, Preemergence) was 95% and the pest or weed control at 125 g/ha ([3]; 125 g ai/ha, Preemergence) was 98%. For the same molecule, the pest or weed control at 62 g/ha ([3]; Preemergence) was 95%, the pest or weed control at 8 g/ha [4, 8] was 0% and the pest or weed control at 16 g/ha [4, 9] was 10%. The pest or weed control at 31 g/ha [4, 10] was 15%, the pest or weed control at 62 g/ha [4, 11] was 20% and the pest or weed control at 125 g/ha [4, 12] was 20%. For the same molecule, the pest or weed control at 8 g/ha [4, 13] was 0%, the pest or weed control at 16 g/ha [4, 14] was 0% and the pest or weed control at 31 g/ha [4, 15] was 5%. The pest or weed control at 62 g/ha [4, 17] was 85%, the pest or weed control at 125 g/ha [4, 16] was 90% and the pest or weed control at 8 g/ha [5, 8] was 0%. For the same molecule, the pest or weed control at 16 g/ha [5, 9] was 5%, the pest or weed control at 31 g/ha [5, 10] was 20% and the pest or weed control at 62 g/ha [5, 11] was 15%. It also gave a pest or weed control at 125 g/ha [5, 12] of 60%, a pest or weed control at 8 g/ha [5, 13] of 0% and a pest or weed control at 16 g/ha [5, 14] of 0%. It also gave a pest or weed control at 31 g/ha [5, 15] of 0%, a pest or weed control at 125 g/ha [5, 16] of 98% and a pest or weed control at 62 g/ha ([5]; pre-emergence, Preemergence) of 95%. The pest or weed control at 8 g/ha ([6]; 8 g ai/ha Preemergence) was 0%, the pest or weed control at 16 g/ha ([6]; 16 g ai/ha Preemergence) was 0% and the pest or weed control at 31 g/ha ([6]; 31 g ai/ha Preemergence) was 0%. It also gave a pest or weed control at 125 g/ha ([6]; 125 g ai/ha Preemergence) of 60%, a pest or weed control at 62 g/ha ([6]; Preemergence) of 10% and a Corn plant response rating (crop injury, 0 = no effect, 100 = complete kill) at 8 g/ha (corn (Zea mays); [8]) of 0%. It also gave a Corn plant response rating (crop injury, 0 = no effect, 100 = complete kill) at 16 g/ha (corn (Zea mays); [9]) of 0%, a Corn plant response rating (crop injury, 0 = no effect, 100 = complete kill) at 31 g/ha (corn (Zea mays); [10]) of 0% and a Corn plant response rating (crop injury, 0 = no effect, 100 = complete kill) at 62 g/ha (corn (Zea mays); [11]) of 0%. The Corn plant response rating (crop injury, 0 = no effect, 100 = complete kill) at 125 g/ha (corn (Zea mays); [12]) was 10%, the Corn plant response rating (crop injury, 0 = no effect, 100 = complete kill) at 8 g/ha (corn (Zea mays); [13]) was 0% and the Corn plant response rating (crop injury, 0 = no effect, 100 = complete kill) at 16 g/ha (corn (Zea mays); [14]) was 0%. The Corn plant response rating (crop injury, 0 = no effect, 100 = complete kill) at 31 g/ha (corn (Zea mays); [15]) was 0%, the Corn plant response rating (crop injury, 0 = no effect, 100 = complete kill) at 62 g/ha (corn (Zea mays); [17]) was 0% and the Corn plant response rating (crop injury, 0 = no effect, 100 = complete kill) at 125 g/ha (corn (Zea mays); [16]) was 15%. It also gave a pest or weed control at 8 g/ha ([7]; 8 g ai/ha Postemergence) of 70%, a pest or weed control at 16 g/ha ([7]; 16 g ai/ha Postemergence) of 90% and a pest or weed control at 31 g/ha ([7]; 31 g ai/ha Postemergence) of 98%. For the same molecule, the pest or weed control at 62 g/ha ([7]; 62 g ai/ha Postemergence) was 100%.
